Reference: article PMC10257182, “Discovery of senolytics using machine learning” (Nature Communications, 2023)
Values joined by “and” are separate entries in the source; they are usually repeats but may differ in a detail not shown here. Identical values can stand only once. Like-named read-outs stand apart in the source and are kept apart here.

Assays:
Format in all cases: cell-based, human
[1] = system: senescent IMR90 ER:RAS cells (4-OHT-induced); assay: Nuclei count (Hoechst, high content imaging) senolytic assay, oncogene-induced senescence (OIS) model, senescent cells
In short: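 Compared non-senescent and senescent IMR90 ER:RAS cultures (senescence induced with 4-OHT at 100 nM final); cells seeded 24 h before dosing, then exposed 72 h to compounds, 10-point […] range 10 μM–10 nM, triplicate. Fixed, Hoechst-stained, nuclei counted by high-content imaging; drop versus untreated reflects cell death.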

[2] = system: senescent A549 cells (etoposide-induced); assay: Nuclei count senolytic assay, therapy-induced senescence (TIS) model, senescent cells; details: Senescent cells, mean
In short: (§1)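 A549 cells made senescent with 100 μM etoposide for 48 h then 3 days in normal media; non-senescent A549 as control. Cells were exposed for 72 h to a 10-point […] range (10 μM–10 nM) in triplicate, then fixed, Hoechst-stained and imaged for nuclei count.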

[3] = system: non-senescent control A549 cells; assay: Nuclei count senolytic assay, TIS model, non-senescent control cells; details: Control cells, mean
In short: as §1

[4] = Homo sapiens, A549, log (dose) [M] -5, read-out: Mean % Cell Survival
[5] = Homo sapiens, A549, log (dose) [M] -5.33, read-out: Mean % Cell Survival
[6] = Homo sapiens, A549, log (dose) [M] -5.66, read-out: Mean % Cell Survival
[7] = Homo sapiens, A549, log (dose) [M] -6, read-out: Mean % Cell Survival
[8] = Homo sapiens, A549, log (dose) [M] -6.33, read-out: Mean % Cell Survival
[9] = Homo sapiens, A549, log (dose) [M] -6.66, read-out: Mean % Cell Survival
[10] = Homo sapiens, A549, log (dose) [M] -7, read-out: Mean % Cell Survival
[11] = Homo sapiens, A549, log (dose) [M] -7.33, read-out: Mean % Cell Survival
[12] = Homo sapiens, A549, log (dose) [M] -7.66, read-out: Mean % Cell Survival
[13] = Homo sapiens, A549, log (dose) [M] -8, read-out: Mean % Cell Survival

CO[C@H]1C[C@@H]2CC[C@@H](C)[C@@](O)(O2)C(=O)C(=O)N2CCCC[C@H]2C(=O)O[C@H]([C@H](C)C[C@@H]2CC[C@@H](O)[C@H](OC)C2)CC(=O)[C@H](C)/C=C(\C)[C@@H](O)[C@@H](OC)C(=O)[C@H](C)C[C@H](C)/C=C/C=C/C=C/1C [Rapamycin, rapamycin, reference compound]
viability at 10 µM ([1]; Homo sapiens, IMR-90, 72 h, Senescent, log (dose) [M] -5, 72 h, mean n=3 (Fig 3C), read-out: Mean % Cell Survival): 98.4% | viability at 4.677 µM ([1]; Homo sapiens, IMR-90, 72 h, Senescent, log (dose) [M] -5.33, 72 h, mean n=3 (Fig 3C), read-out: Mean % Cell Survival): 103% | viability at 2.188 µM ([1]; Homo sapiens, IMR-90, 72 h, Senescent, log (dose) [M] -5.66, 72 h, mean n=3 (Fig 3C), read-out: Mean % Cell Survival): 114% | viability at 1 µM ([1]; Homo sapiens, IMR-90, 72 h, Senescent, log (dose) [M] -6, 72 h, mean n=3 (Fig 3C), read-out: Mean % Cell Survival): 90.6% | viability at 0.4677 µM ([1]; Homo sapiens, IMR-90, 72 h, Senescent, log (dose) [M] -6.33, 72 h, mean n=3 (Fig 3C), read-out: Mean % Cell Survival): 101% | viability at 0.2188 µM ([1]; Homo sapiens, IMR-90, 72 h, Senescent, log (dose) [M] -6.66, 72 h, mean n=3 (Fig 3C), read-out: Mean % Cell Survival): 97.8% | viability at 0.1 µM ([1]; Homo sapiens, IMR-90, 72 h, Senescent, log (dose) [M] -7, 72 h, mean n=3 (Fig 3C), read-out: Mean % Cell Survival): 92.6% | viability at 0.04677 µM ([1]; Homo sapiens, IMR-90, 72 h, Senescent, log (dose) [M] -7.33, 72 h, mean n=3 (Fig 3C), read-out: Mean % Cell Survival): 105% | viability at 0.02188 µM ([1]; Homo sapiens, IMR-90, 72 h, Senescent, log (dose) [M] -7.66, 72 h, mean n=3 (Fig 3C), read-out: Mean % Cell Survival): 93.9% | viability at 0.01 µM ([1]; Homo sapiens, IMR-90, 72 h, Senescent, log (dose) [M] -8, 72 h, mean n=3 (Fig 3C), read-out: Mean % Cell Survival): 92% | viability at 10 µM ([1]; Homo sapiens, IMR-90, Senescent cells, log (dose) [M] -5, individual replicates, SUP FIG 4C, read-out: % Cell Survival): 94.1% | viability at 4.677 µM ([1]; Homo sapiens, IMR-90, Senescent cells, log (dose) [M] -5.33, individual replicates, SUP FIG 4C, read-out: % Cell Survival): 113% | viability at 0.2188 µM ([1]; Homo sapiens, IMR-90, Senescent cells, log (dose) [M] -6.66, individual replicates, SUP FIG 4C, read-out: % Cell Survival): 104% | viability at 0.1 µM ([1]; Homo sapiens, IMR-90, Senescent cells, log (dose) [M] -7, individual replicates, SUP FIG 4C, read-out: % Cell Survival): 95.9% | viability at 0.04677 µM ([1]; Homo sapiens, IMR-90, Senescent cells, log (dose) [M] -7.33, individual replicates, SUP FIG 4C, read-out: % Cell Survival): 107% | viability at 0.02188 µM ([1]; Homo sapiens, IMR-90, Senescent cells, log (dose) [M] -7.66, individual replicates, SUP FIG 4C, read-out: % Cell Survival): 102% | viability at 0.01 µM ([1]; Homo sapiens, IMR-90, Senescent cells, log (dose) [M] -8, individual replicates, SUP FIG 4C, read-out: % Cell Survival): 88.4% | viability at 10 µM [2, 4]: 212% | viability at 4.68 µM [2, 5]: 215% | viability at 2.19 µM [2, 6]: 208% | viability at 1 µM [2, 7]: 228% | viability at 0.468 µM [2, 8]: 246% | viability at 0.219 µM [2, 9]: 228% | viability at 0.1 µM [2, 10]: 250% | viability at 0.0468 µM [2, 11]: 249% | viability at 0.0219 µM [2, 12]: 69.5% | viability at 0.01 µM [2, 13]: 93.7% | viability at 10 µM [3, 4]: 74.6% | viability at 4.68 µM [3, 5]: 60.2% | viability at 2.19 µM [3, 6]: 54% | viability at 1 µM [3, 7]: 104% | viability at 0.468 µM [3, 8]: 117% | viability at 0.219 µM [3, 9]: 122% | viability at 0.1 µM [3, 10]: 128% | viability at 0.0468 µM [3, 11]: 102% | viability at 0.0219 µM [3, 12]: 117% | viability at 0.01 µM [3, 13]: 116%

C=Cc1c(C)c2cc3nc(cc4[nH]c(cc5nc(cc1[nH]2)C(C)=C5CCC(=O)O)c(CCC(=O)OC)c4C)[C@@]1(C)C3=CC=C(C(=O)OC)[C@H]1C(=O)OC [Verteporfin, verteporfin, reference compound]
% Cell Survival ([1]; Senescent cells, log (dose) [M] -5, individual replicates, SUP FIG 4C): 93.9435% and 91.1111% and 111.269% | % Cell Survival ([1]; Senescent cells, log (dose) [M] -5.33, individual replicates, SUP FIG 4C): 81.5612% and 99.085% and 87.8238% | % Cell Survival ([1]; Senescent cells, log (dose) [M] -5.66, individual replicates, SUP FIG 4C): 114.536% and 91.2418% and 98.8342% | % Cell Survival ([1]; Senescent cells, log (dose) [M] -6, individual replicates, SUP FIG 4C): 68.7752% and 100.915% and 109.974% | % Cell Survival ([1]; Senescent cells, log (dose) [M] -6.33, individual replicates, SUP FIG 4C): 85.8681% and 55.5556% and 108.549% | % Cell Survival ([1]; Senescent cells, log (dose) [M] -6.66, individual replicates, SUP FIG 4C): 84.253% and 107.32% and 95.2073% | % Cell Survival ([1]; Senescent cells, log (dose) [M] -7, individual replicates, SUP FIG 4C): 86.541% and 87.8431% and 90.544% | % Cell Survival ([1]; Senescent cells, log (dose) [M] -7.33, individual replicates, SUP FIG 4C): 95.5585% and 120.915% and 93.9119% | % Cell Survival ([1]; Senescent cells, log (dose) [M] -7.66, individual replicates, SUP FIG 4C): 98.3849% and 123.268% and 87.8238% | % Cell Survival ([1]; Senescent cells, log (dose) [M] -8, individual replicates, SUP FIG 4C): 86.541% and 113.464% and 76.6839% | Mean % Cell Survival ([1]; Senescent, log (dose) [M] -5, 72 h, mean n=3 (Fig 3C)): 98.7747% | Mean % Cell Survival ([1]; Senescent, log (dose) [M] -5.33, 72 h, mean n=3 (Fig 3C)): 89.49% | Mean % Cell Survival ([1]; Senescent, log (dose) [M] -5.66, 72 h, mean n=3 (Fig 3C)): 101.537% | Mean % Cell Survival ([1]; Senescent, log (dose) [M] -6, 72 h, mean n=3 (Fig 3C)): 93.2215% | Mean % Cell Survival ([1]; Senescent, log (dose) [M] -6.33, 72 h, mean n=3 (Fig 3C)): 83.3243% | Mean % Cell Survival ([1]; Senescent, log (dose) [M] -6.66, 72 h, mean n=3 (Fig 3C)): 95.5935% | Mean % Cell Survival ([1]; Senescent, log (dose) [M] -7, 72 h, mean n=3 (Fig 3C)): 88.3094% | Mean % Cell Survival ([1]; Senescent, log (dose) [M] -7.33, 72 h, mean n=3 (Fig 3C)): 103.462% | Mean % Cell Survival ([1]; Senescent, log (dose) [M] -7.66, 72 h, mean n=3 (Fig 3C)): 103.159% | Mean % Cell Survival ([1]; Senescent, log (dose) [M] -8, 72 h, mean n=3 (Fig 3C)): 92.2297% | % Cell Survival ([1]; Senescent, log (dose) [M] -5): 113.825% and 103.66% and 137.931% | % Cell Survival ([1]; Senescent, log (dose) [M] -5.33): 79.9635% and 100.131% and 115.557% | % Cell Survival ([1]; Senescent, log (dose) [M] -5.66): 102.923% and 109.085% and 134.403% | % Cell Survival ([1]; Senescent, log (dose) [M] -6): 99.1474% and 91.7647% and 157.418% | % Cell Survival ([1]; Senescent, log (dose) [M] -6.33): 98.8429% and 106.993% and 136.808% | % Cell Survival ([1]; Senescent, log (dose) [M] -6.66): 92.57% and 116.536% and 113.873% | % Cell Survival ([1]; Senescent, log (dose) [M] -7): 103.898% and 73.5294% and 123.657% | % Cell Survival ([1]; Senescent, log (dose) [M] -7.33): 62.363% and 86.2092% and 118.605% | % Cell Survival ([1]; Senescent, log (dose) [M] -7.66): 100.061% and 91.4379% and 129.27% | % Cell Survival ([1]; Senescent, log (dose) [M] -8): 96.6504% and 87.3856% and 116.84% | Mean % Cell Survival ([2]; log (dose) [M] -5): 118.472% | Mean % Cell Survival ([2]; log (dose) [M] -5.33): 98.5505% | Mean % Cell Survival ([2]; log (dose) [M] -5.66): 115.47% | Mean % Cell Survival ([2]; log (dose) [M] -6): 116.11% | Mean % Cell Survival ([2]; log (dose) [M] -6.33): 114.215% | Mean % Cell Survival ([2]; log (dose) [M] -6.66): 107.66% | Mean % Cell Survival ([2]; log (dose) [M] -7): 100.361% | Mean % Cell Survival ([2]; log (dose) [M] -7.33): 89.0589% | Mean % Cell Survival ([2]; log (dose) [M] -7.66): 106.923% | Mean % Cell Survival ([2]; log (dose) [M] -8): 100.292% | Mean % Cell Survival ([3]; log (dose) [M] -5): 113.771% | Mean % Cell Survival ([3]; log (dose) [M] -5.33): 108.79% | Mean % Cell Survival ([3]; log (dose) [M] -5.66): 94.7872% | Mean % Cell Survival ([3]; log (dose) [M] -6): 92.365% | Mean % Cell Survival ([3]; log (dose) [M] -6.33): 96.0501% | Mean % Cell Survival ([3]; log (dose) [M] -6.66): 101.194% | Mean % Cell Survival ([3]; log (dose) [M] -7): 90.846% | Mean % Cell Survival ([3]; log (dose) [M] -7.33): 108.359% | Mean % Cell Survival ([3]; log (dose) [M] -7.66): 100.589% | Mean % Cell Survival ([3]; log (dose) [M] -8): 97.9379%
